{"source": "patent US12516293B2", "about": "“Reagents and methods with Wnt agonists and bioactive lipids for generating and expanding cardiomyocytes” (The Board of Trustees of the Leland Stanford Junior …, priority 2018, dated 2026)", "format_in_all_cases": "cell-based, human", "key": {"[1]": {"test_system": "hiPSC-CMs", "experiment": "Cell cycle activity in well-differentiated hiPSC-CMs (ki67, pHH3, cell count)", "conditions": "5 μM VPC23019 together with S1P", "procedure": "To address this, well-differentiated hiPSC-CMs were generated (e.g. day 30 or later) using chemically-defined protocols (Burridge et al. 2014; Churko et al. 2013; Sharma et al. 2015) (Movie S1) and treated them with S1P/LPA or CHIR or both (FIG. 18A). The presence of S1P/LPA receptors in these cells was first validated (FIG. 21). Immunofluorescence staining was then performed for ki67, a marker of cell cycle activity, and phospho Histone H3 (pHH3), a mitosis marker, in cardiac troponin T (TnT) positive cells."}, "[2]": {"test_system": "YAP", "experiment": "YAP nuclear accumulation in hiPSC-CMs", "conditions": "day 10 or day 30 hiPSC-CMs", "procedure": "Given the well-known role of Hippo/Yap signaling in regulating cardiomyocyte and non-myocyte proliferation and regeneration (Yusuf et al. 2012; Heallen et al. 2011; Morikawa et al. 2017; Leach et al. 2017; von Gise et al. 2012), the ability of bioactive lipids was assessed to promote nuclear accumulation of Yap (FIG. 23). […] Consequently, no increase in nuclear YAP accumulation was observed following bioactive lipid treatment (FIG. 23B)."}, "[3]": {"test_system": "TCF/LEF", "experiment": "TOPFlash TCF/LEF luciferase reporter in day 12 hiPSC-CMs", "procedure": "Day 12 hiPSC-CMs were transfected for 48h with a TCF reporter plasmid (TOPflash M50, Addgene) or the mutant reporter plasmid (TOPflash M51, Addgene) and the use of Lipofectamine 3000 (Invitrogen). 72h after transfection cells were treated with various small molecules for 24h. Cells were lysed and mixed with luciferase substrate (Promega) and the firefly luciferase expression was measured with a 96-well micro plate reader (Fisher)."}, "[4]": {"test_system": "hiPSC-CMs", "experiment": "CHIR-mediated hiPSC-CM proliferation with pathway inhibitors"}, "[5]": {"test_system": "hiPSC-CMs", "experiment": "Real-time PCR / immunostaining of cardiac gene expression in hiPSC-CMs", "procedure": "For quantitative analysis of gene expression, RNA was extracted with a lysis buffer (Qiagen) from hiPSC-CMs and stored at −80° C. Total RNA from each sample was purified from cell lysate using a RNA purification kit (Qiagen). cDNA was made using iScript cDNA synthesis kit (BioRad). Quantitative PCR was performed using a 96-well thermocycler system (Biorad) with SYBR Green substrate (Affymetrix) for 40 cycles. All primers sequences were obtained from the PrimerBank (Massachusetts General Hospital/Harvard Medical School) online database. […] Day 12 hiPSC-CMs were cultured in CHIR continuously for 2 months with serial passaging followed by CHIR withdrawal for an additional month."}, "[6]": {"test_system": "hiPSC-CMs", "experiment": "ki67/pHH3 proliferation and binucleation of hiPSC-CMs (immunofluorescence)", "conditions": "day 12 hiPSC-CMs (P0), 24 hrs treatment", "procedure": "Immunohistochemistry was performed with the incubation of primary antibodies overnight followed by 2 hours of incubation with various Alexa fluorescence conjugated secondary antibodies. Images were made with confocal (Zeiss LSM 710) or regular immunofluorescence microscopy (Leica DM IL LED). Primaries used in this study were cardiac troponin T (MS-295, Fisher), Ki67 (ab15580, Abcam), pHH3 (#9701, Cell Signaling), aurora B (ab2254, Abcam), alpha sarcomeric actinin ([…], Sigma-Aldrich), MLC2V (ab48003, Abcam), phospo AKT […] (#9275, Cell Signaling). […] To examine this, the percentage was determined of troponin T (TnT) positive hiPSC-CMs that express the cell cycle marker ki67 or the mitosis marker phospho-histone H3 (pHH3) at each passage after treatment with CHIR or DMSO (CTR) (FIG. 2A-C). […] The short-term (24 hrs) changes were assessed in proliferation rate of day 12 hiPSC-CMs (P0) after treatment with CHIR-, CTR-, or C59, a specific inhibitor of Wnt signaling (FIG. 2I-J)."}, "[7]": {"test_system": "hiPSC-CMs", "experiment": "Sarcomere alignment and contractility on micropatterns", "conditions": "C59 added to cells previously treated with CHIR (CHIR>C59)", "procedure": "Cells were plated on soft substrates with micropatterned proteins on top. After 3-6 days of culture high resolution movies (Sony Microscopy) were recorded for at least 10 individual cells per group and motion velocity analysis was processed digitally. After recordings, cells were fixed and used for immunohistochemistry and confocal imaging. Sarcomere alignment was quantified with Image J software. CM maturation is accompanied by the formation of highly structured sarcomere, bi- or multinucleation, and cell cycle exit (Bassat et al., 2017; Bersell et al., 2009; Senyo et al., 2014; Uygur and Lee, 2016). […] To address this, age-matched hiPSC-CMs exposed to media containing DMSO (CTR) were compared to ones that have undergone 3 passages in media containing 2.0 μM CHIR using various phenotypic assays of CM function. To assess sarcomere alignment, CHIR and CTR hiPSC-CMs on 7:1 aspect ratio micropatterns (Ribeiro et al., 2015) were cultured and immunostained with TnT and sarcomeric actinin antibodies."}, "[8]": {"test_system": "hiPSC-CMs", "experiment": "Wnt receptor ligands on hiPSC-CM expansion and cell-cycle reactivation", "conditions": "day 12 proliferative hiPSC-CMs", "text": "Reactivating Wnt signaling may promote proliferation in aged, non-proliferative CMs rather than simply maintain pre-existing proliferation (FIG. 6A). […]"}}}
{"molecule": "CCCCCCCCc1cccc(NC(=O)[C@H](N)COP(=O)(O)O)c1", "note": "[VPC23019]", "values": [{"measurement": "expression of ki67 in S1P-treated hiPSC-CMs", "setting": "[1]", "result": "reduced"}]}
{"molecule": "lysophosphatidic acid [LPA]", "values": [{"measurement": "YAP nuclear accumulation", "setting": "[2]", "result": "No significant (N.S.) increase in YAP nuclear accumulation"}]}
{"molecule": "NC1(c2ccc(-c3nc4ccn5c(=O)[nH]nc5c4cc3-c3ccccc3)cc2)CCC1", "note": "[MK2206]", "values": [{"measurement": "TCF/LEF luciferase activity", "setting": "[3]; CHIR and MK2206, 24 hrs", "result": "not due to the downregulation of downstream β-catenin signaling"}, {"measurement": "mitotic cells expressing pAKT", "setting": "[4]; CHIR and MK2206 vs CHIR alone", "result": "far fewer mitotic cells"}, {"measurement": "CM replication", "setting": "[4]; CHIR and MK2206 vs CHIR alone, 6 days", "result": "decreased"}]}
{"molecule": "Cc1ccc(/C=N/NC(=O)c2ccccc2Oc2ccccc2)o1", "note": "[PNU74654]", "values": [{"measurement": "CHIR-induced Wnt target gene expression", "setting": "[5]; co-treatment with CHIR, qPCR", "result": "abolish this increase"}, {"measurement": "markers of hiPSC-CM maturation (MYL2, MYH7, MYOM1)", "setting": "[5]; co-treatment with CHIR, qPCR", "result": "recovered fully"}, {"measurement": "CHIR-induced activation of TCF/LEF luciferase reporter", "setting": "[3]; CHIR in the presence of PNU74654, 24 hrs", "result": "abolished"}, {"measurement": "decrease of CHIR-mediated hiPSC-CM proliferation", "setting": "[4]; CHIR in the presence of PNU74654 vs CHIR alone", "result": "~50", "unit": "%"}]}
{"molecule": "Cc1cc(-c2ccc(CC(=O)Nc3ccc(-c4cccnc4)cc3)cc2)ccn1", "note": "[C59]", "values": [{"measurement": "ki67 expression / proliferation rate", "setting": "[6]", "result": "did not result in a decreased rate of hiPSC-CM proliferation"}, {"measurement": "expression of maturation, excitation, contractility and metabolism markers", "setting": "[5]; 3 additional weeks after CHIR day 12 to 28, compared with continued CHIR", "result": "upregulation of markers associated with cardiomyocyte maturation"}, {"measurement": "MYL2 immunofluorescence staining", "setting": "[5]; compared with CHIR-treated cells", "result": "increase in immunofluorescence staining for MYL2"}, {"measurement": "sarcomere organization after C59", "setting": "[7]", "result": "reorganization of their sarcomeres to a state similar to the age-matched control hiPSC-CMs"}]}
{"molecule": "Wnt3A: purified Wnt3A protein (R&D systems), Wnt receptor ligand (protein, UniProt P56704 19-352, looked up) Protein Wnt-3a: SYPIWWSLAVGPQYSSLGSQPILCASIPGLVPKQLRFCRNYVEIMPSVAEGIKIGIQECQHQFRGRRWNCTTVHDSLAIFGPVLDKATRESAFVHAIASAGVAFAVTRSCAEGTAAICGCSSRHQGSPGKGWKWGGCSEDIEFGGMVSREFADARENRPDARSAMNRHNNEAGRQAIASHMHLKCKCHGLSGSCEVKTCWWSQPDFRAIGDFLKDKYDSASEMVVEKHRESRGWVETLRPRYTYFKVPTERDLVYYEASPNFCEPNPETGSFGTRDRTCNVSSHGIDGCDLLCCGRGHNARAERRREKCRCVFHWCCYVSCQECTRVYDVHTCK", "values": [{"measurement": "CM expansion (TnT positive cell number)", "setting": "[8]", "result": "promoted CM expansion"}]}
